Drawing on US6949544B2, “Inhibitors of c-Jun N-terminal kinases (JNK) and other protein kinases” (Vertex Pharmaceuticals Incorporated, priority 2001, dated 2005), this text covers Ki for 30 molecules.

Bounds are passed on as bounds.

Format in all cases: biochemical
Experiment [1] deals with T1, activated JNK3 (Homo sapiens, UniProt P53779).
T1 construct: One such construct encodes amino acid residues Ser40-Glu402 of JNK3α1 and is preceded by Met and Gly residues; Met-Gly (initiator methionine and added glycine) (N); made in house; host or cells: E. coli BL21 (DE3)
The experiment is described as follows: JNK inhibition assay (spectrophotometric coupled-enzyme assay). The conditions noted are these: 10 nM activated JNK3, 10 μM ATP; read-out: Activity in the JNK3 Inhibition Assay (Ki rating A-C). An excerpt: A BLAST search of the EST database using the published JNK3α1 cDNA as a query identified an EST clone (#632588) that contained the entire coding sequence for human JNK3α1. Polymerase chain reactions (PCR) using pfu polymerase (Strategene) were used to introduce restriction sites into the cDNA for cloning into the pET-15B expression vector at the NcoI and BamHI sites. The protein was expressed in E. coli. […] This truncation corresponds to Ser 2 of JNK1 and JNK2 proteins, and is preceded by a methionine (initiation) and a glycine residue. The glycine residue was added in order to introduce an NcoI site for cloning into the expression vector. In addition, systematic C-terminal truncations were performed by PCR to identify a construct that give rise to diffraction-quality crystals.
5 mg of JNK3 was diluted to 0.5 mg/ml in 50 mM HEPES buffer, pH 7.5, containing 100 mM NaCl, 5 mM DTT, 20 mM MgCl2 and 1 mM ATP. GST-MKK7(DD) was added at a molar ratio of 1:2.5 GST-MKK7:JNK3. After incubation for 30 minutes at 25° C., the reaction mixture was concentrated 5-fold by ultrafiltration in a Centriprep-30 (Amicon, Beverly, Mass.), diluted to 10 ml and an additional 1 mM ATP added. This procedure was repeated three times to remove ADP and replenish ATP. The final addition of ATP was 5 mM and the mixture incubated overnight at 4° C.
The activated JNK3/GST-MKK7(DD) reaction mixture was exchanged into 50 mM HEPES buffer, pH 7.5, containing 5 mM DTT and 5% glycerol (w/v) by dialysis or ultrafiltration. The reaction mixture was adjusted to 1.1 M potassium phosphate, pH 7.5, and purified by hydrophobic interaction chromatography (at 25° C.) using a Rainin Hydropore column. […] Activated JNK3 (i.e. doubly phosphorylated JNK3) was stored at −70° C. at 0.25-1 mg/ml.
Compounds were assayed for the inhibition of JNK3 by a spectrophotometric coupled-enzyme assay. In this assay, a fixed concentration of activated JNK3 (10 nM) was incubated with various concentrations of a potential inhibitor dissolved in DMSO for 10 minutes at 30° C. in a buffer containing 0.1 M HEPES buffer, pH 7.5, containing 10 mM MgCl2, 2.5 mM phosphoenolpyruvate, 200 μM NADH, 150 μg/mL pyruvate kinase, 50 μg/mL lactate dehydrogenase, and 200 μM EGF receptor peptide. […] The reaction was initiated by the addition of 10 μM ATP and the assay plate is inserted into the spectrophotometer's assay plate compartment that was maintained at 30° C. The decrease of absorbance at 340 nm was monitored as a function of time. The rate data as a function of inhibitor concentration was fitted to competitive inhibition kinetic model to determine the Ki.

The target of experiment [2] is Glycogen Synthase Kinase 3 (GSK-3) (Homo sapiens, UniProt P49841). The experiment can be described thus: GSK-3 inhibition assay (standard coupled enzyme assay). The following applies: 60 nM GSK-3, 10 μM ATP; read-out: GSK-3 Inhibitory Activity (Ki rating A-C). As for the experimental part:
Compounds were screened in the following manner for their ability to inhibit Glycogen Synthase Kinase 3 (GSK-3) using a standard coupled enzyme assay (Fox et al (1998) Protein Sci 7, 2249). To an assay stock buffer solution containing 0.1M HEPES 7.5, 10 mM MgCl2, 25 mM NaCl, 2.5 mM phosphoenolpyruvate, 300 μM NADH, 1 mM DTT, 30 μg/mL pyruvate kinase, 10 μg/mL lactate dehydrogenase, 300 μM peptide (HSSPHQp-SEDEEE, American Peptide, Sunnyvale, Calif.), and 60 nM GSK-3, was added a 30 μM solution of the compound in DMSO and the resulting mixture incubated at 30° C. for 5 min. The reaction was initiated by the addition of 10 μM ATP. The rates of reaction were obtained by monitoring absorbance at 340 nm over a 5 minute read time at 30° C. using a Molecular Devices plate reader (Sunnyvale, Calif.). The IC50 was determined from the rate data as a function of inhibitor concentration.

In experiment [3] the target is CDK-2/Cyclin A (Homo sapiens, UniProt P24941). The experiment is described as follows: CDK2 inhibition assay (standard coupled enzyme assay). The following applies: 25 nM CDK-2/Cyclin A; read-out: CDK2 Inhibitory Activity (Ki rating A-C). On the procedure:
Compounds were screened in the following manner for their ability to inhibit CDK2 using a standard coupled enzyme assay (Fox et al (1998) Protein Sci 7, 2249).
To an assay stock buffer solution containing 0.1M HEPES 7.5, 10 mM MgCl2, 1 mM DTT, 25 mM NaCl, 2.5 mM phosphoenolpyruvate, […], […], […], […], and 100 μM peptide ([…], American Peptide, Sunnyvale, Calif.) was added a DMSO solution of a compound of the present invention to a final concentration of 30 μM. The resulting mixture was incubated at 30° C. for 10 minutes.
The reaction was initiated by the addition of 10 μL of CDK-2/Cyclin A stock solution to give a final concentration of 25 nM in the assay. The rates of reaction were obtained by monitoring absorbance at 340 nm over a 5-minute read time at 30° C. using a BioRad Ultramark plate reader (Hercules, Calif.). The Ki values were determined from the rate data as a function of inhibitor concentration.

The target in experiment [4] is T2, Lck kinase purified from bovine thymus (Bos taurus, UniProt Q3ZCM0).
T2 construct: Lck kinase purified from bovine thymus; purchased Upstate Biotechnology 14-106; host or cells: bovine thymus (tissue-purified)
The experiment is described as follows: Lck inhibition assay (33P incorporation into poly Glu-Tyr). The following applies: 10 μM ATP; read-out: Activity in the Lck Inhibition Assay (Ki rating A-C). On the procedure: The compounds were assayed as inhibitors of Lck kinase purified from bovine thymus (from Upstate Biotechnology, cat. no. 14-106). Lck kinase activity was monitored by following the incorporation of ^33P from ATP into the tyrosine of a random poly Glu-Tyr polymer substrate of composition, Glu:Tyr=4:1 (Sigma, cat. no. P-0275). The following were the final concentrations of the assay components: 0.05 M HEPES, pH 7.6, 10 mM MgCl2, 2 mM DTT, 0.25 mg/ml BSA, 10 μM ATP (1-2 μCi ^33P-ATP per reaction), 5 mg/ml poly Glu-Tyr, and 1-2 units of lck kinase. In a typical assay, all the reaction components with the exception of ATP were pre-mixed and aliquoted into assay plate wells. […] The assay plate was incubated at 30° C. for 10 min before initiating the reaction with ^33P-ATP. After 20 min of reaction, the reactions were quenched with 150 μl of 10% trichloroacetic acid (TCA) containing 20 mM Na3PO4. The quenched samples were then transferred to a 96-well filter plate (Whatman, UNI-Filter GF/F Glass Fiber Filter, cat no. 7700-3310) installed on a filter plate vacuum manifold. Filter plates were washed four times with 10% TCA containing 20 mM Na3PO4 and then 4 times with methanol. 200 μl of scintillation fluid was then added to each well. The plates were sealed and the amount of radioactivity associated with the filters was quantified on a TopCount scintillation counter.

Chain of Glycogen Synthase Kinase 3 (GSK-3) (P49841 whole entry): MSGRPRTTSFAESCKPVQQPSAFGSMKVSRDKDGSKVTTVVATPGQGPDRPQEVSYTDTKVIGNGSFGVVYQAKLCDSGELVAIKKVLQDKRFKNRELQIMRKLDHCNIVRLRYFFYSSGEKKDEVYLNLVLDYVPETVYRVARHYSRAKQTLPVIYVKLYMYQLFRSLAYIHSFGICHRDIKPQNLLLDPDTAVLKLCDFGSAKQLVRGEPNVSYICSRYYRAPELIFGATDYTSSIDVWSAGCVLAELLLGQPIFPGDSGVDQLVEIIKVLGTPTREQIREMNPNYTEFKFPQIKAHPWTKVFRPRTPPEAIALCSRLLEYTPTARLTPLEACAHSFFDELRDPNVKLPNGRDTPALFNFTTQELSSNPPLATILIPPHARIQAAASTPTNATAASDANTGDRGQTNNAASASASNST
T2 sequence (Q3ZCM0 1-509): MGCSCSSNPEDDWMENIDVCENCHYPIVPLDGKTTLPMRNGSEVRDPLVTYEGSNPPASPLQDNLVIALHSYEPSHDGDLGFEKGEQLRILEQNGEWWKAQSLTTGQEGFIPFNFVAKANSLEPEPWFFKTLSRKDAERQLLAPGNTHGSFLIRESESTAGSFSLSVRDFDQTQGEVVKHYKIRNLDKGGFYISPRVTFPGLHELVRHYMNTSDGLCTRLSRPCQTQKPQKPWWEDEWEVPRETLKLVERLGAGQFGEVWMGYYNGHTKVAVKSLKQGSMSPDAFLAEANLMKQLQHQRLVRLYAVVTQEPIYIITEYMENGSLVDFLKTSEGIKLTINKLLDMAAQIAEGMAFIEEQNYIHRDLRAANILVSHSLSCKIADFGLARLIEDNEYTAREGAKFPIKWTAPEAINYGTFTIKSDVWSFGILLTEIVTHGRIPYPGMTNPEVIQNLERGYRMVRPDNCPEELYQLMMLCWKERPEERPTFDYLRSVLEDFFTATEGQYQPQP
T1 sequence (P53779 40-402): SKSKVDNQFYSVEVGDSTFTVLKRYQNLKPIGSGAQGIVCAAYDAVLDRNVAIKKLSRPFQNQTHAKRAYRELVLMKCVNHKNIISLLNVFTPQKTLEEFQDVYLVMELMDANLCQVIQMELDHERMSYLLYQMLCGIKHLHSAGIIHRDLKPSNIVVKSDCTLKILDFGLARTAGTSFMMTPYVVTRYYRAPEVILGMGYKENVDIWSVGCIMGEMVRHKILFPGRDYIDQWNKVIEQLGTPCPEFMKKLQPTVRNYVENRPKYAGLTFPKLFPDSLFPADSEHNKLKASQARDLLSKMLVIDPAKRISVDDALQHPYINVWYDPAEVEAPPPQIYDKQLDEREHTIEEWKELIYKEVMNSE

In the case of `COc1cccc(Nc2nccc(-c3cc(OC)c(OCCN4CCOCC4)c(OC)c3)n2)c1` [Compound I-49], the inhibitory constant (Ki) in experiment [1] is below 0.1 µM; in experiment [2], 0.1 to 1 µM; in experiment [3], above 5 µM.

For the molecule `COc1cc(-c2ccnc(Nc3ccc(F)c(F)c3)c2)cc(OC)c1OC` [Compound I-160], the Ki in experiment [2] is above 1 µM.

On to `COc1cc(-c2ccnc(Nc3cc(C)n[nH]3)n2)cc(OC)c1OC` [Compound I-88], for which the Ki is 0.1 to 1 µM in experiment [1] and above 1 µM in experiment [2].

In the case of `COc1cc(-c2ccnc(Nc3cc(F)c(F)c(F)c3)n2)cc(OC)c1OC` [Compound I-22], the Ki in experiment [1] is below 0.1 µM; in experiment [2] it was above 1 µM; in experiment [3], above 5 µM.

Regarding `CCc1ccc(Nc2cc(-c3cc(OC)c(OC)c(OC)c3)ccn2)cc1` [Compound I-158], the inhibitory constant (Ki) in experiment [2] was above 1 µM.

For the molecule `COc1cccc(Nc2nccc(-c3cc(C)c(OC)c(C)c3)n2)c1` [Compound I-52], the Ki in experiment [1] is below 0.1 µM; in experiment [2] it was 0.1 to 1 µM.

Consider `COc1cc(-c2ccnc(Nc3ccccc3F)n2)cc(OC)c1OC` [Compound I-5], for which the figures for the Ki in experiment [1], in experiment [2] and in experiment [3] were 0.1 to 1 µM, above 1 µM and above 5 µM, respectively.

Take `COc1cc(-c2ccnc(Nc3cccc(OCc4ccccc4)c3)n2)cc(OC)c1OC` [Compound I-38]: the inhibition constant (Ki) is below 0.1 µM in experiment [1], below 0.1 µM in experiment [2] and above 5 µM in experiment [3].

Consider `COc1ccc(Nc2nccc(-c3cc(OC)c(OC)c(OC)c3)n2)cc1Cl` [Compound I-35], for which the inhibition constant (Ki) in experiment [1] is below 0.1 µM; in experiment [2], below 0.1 µM; in experiment [3] it was above 5 µM.

Regarding `COc1cc(-c2ccnc(Nc3cccc(Cl)c3)n2)cc(OC)c1OC` [Compound I-18], the Ki in experiment [1] was below 0.1 µM; in experiment [2] it was below 0.1 µM; in experiment [3], above 5 µM.

In the case of `COc1ccc(-c2ccnc(Nc3cccc(-c4ccc(N(C)C)cc4)c3)n2)c(OC)c1OC` [II-52], the Ki in experiment [3] is above 5 µM; in experiment [4] it was 0.1 to 1 µM.

`COc1cc(-c2ccnc(Nc3cccc(N(C)C)c3)n2)cc(OC)c1OC` [Compound I-89]: the Ki in experiment [1] and in experiment [4] was 0.1 to 1 µM throughout.

Consider `COc1cccc(Nc2nccc(-c3cc(OC)c(OC)c(OC)c3)n2)c1` [Compound I-20], for which the Ki in experiment [1] was below 0.1 µM; in experiment [2], 0.1 to 1 µM; in experiment [3], above 5 µM.

With `COc1ccc(-c2ccnc(Nc3cccc(-c4cccc(N)c4)c3)n2)c(OC)c1OC` [II-51], the inhibition constant (Ki) was above 5 µM in experiment [3] and 0.1 to 1 µM in experiment [4].

For `COc1ccc(-c2ccnc(Nc3cccc(-c4ccc(CO)cc4)c3)n2)c(OC)c1OC` [II-49], the values for the Ki in experiment [3] and in experiment [4] were above 5 µM and below 0.1 µM, respectively.

In the case of `COc1ccc(-c2ccnc(Nc3cc(-c4cccnc4)ccc3C)n2)c(OC)c1OC` [II-60], the Ki in experiment [3] was above 5 µM; in experiment [4], 0.1 to 1 µM.

With `COc1ccc(-c2ccnc(Nc3cc(-c4cc(C)ccc4C)ccc3C)n2)c(OC)c1OC` [II-58], the Ki is above 5 µM in experiment [3] and above 1 µM in experiment [4].

Take `COc1ccc(-c2ccnc(Nc3cccc(-c4ccc(F)c(Cl)c4)c3)n2)c(OC)c1OC` [II-50]: the results for the Ki in experiment [3] and in experiment [4] were above 5 µM and 0.1 to 1 µM, respectively.

In the case of `COc1ccc(-c2ccnc(Nc3cc(-c4cccc(Cl)c4)ccc3C)n2)c(OC)c1OC` [II-54], the Ki in experiment [3] is above 5 µM; in experiment [4], 0.1 to 1 µM.

For the molecule `CCOc1cccc(-c2ccc(C)c(Nc3nccc(-c4ccc(OC)c(OC)c4OC)n3)c2)c1` [II-59], the results for the Ki in experiment [3] and in experiment [4] were above 5 µM and 0.1 to 1 µM, respectively.

With `COc1ccc(-c2ccnc(Nc3cccc(-c4cccnc4)c3)n2)c(OC)c1OC` [II-53], the Ki is above 5 µM in experiment [3] and 0.1 to 1 µM in experiment [4].

For `COc1ccc(-c2ccnc(Nc3cc(-c4ccc(N(C)C)cc4)ccc3C)n2)c(OC)c1OC` [II-55], the inhibition constant Ki is above 5 µM in experiment [3] and below 0.1 µM in experiment [4].

For `COc1ccc(-c2ccnc(Nc3cc(CO)ccc3C)n2)c(OC)c1OC` [II-61], the Ki in experiment [3] is above 5 µM; in experiment [4], 0.1 to 1 µM.

Consider `COc1cc(-c2ccnc(Nc3onc(C)c3C)n2)cc(OC)c1OC` [Compound I-87], for which the Ki in experiment [1] is 0.1 to 1 µM; in experiment [2], above 1 µM.

For `COc1cc(-c2ccnc(Nc3ccc(F)cc3F)c2)cc(OC)c1OC` [Compound I-159], the inhibitory constant (Ki) in experiment [2] was in the range of 0.1 to 1 µM.

Regarding `COc1cc(-c2ccnc(NCc3ccccc3)n2)cc(OC)c1OC` [Compound I-37], the inhibitory constant (Ki) in experiment [1] and in experiment [2] was above 1 µM each time.

Take `COc1ccc(-c2ccnc(Nc3cc(-c4cccc(C(F)(F)F)c4)ccc3C)n2)c(OC)c1OC` [II-57]: the Ki in experiment [3] is above 5 µM; in experiment [4], above 1 µM.

For `COc1cc(-c2ccnc(Nc3cccc(S(N)(=O)=O)c3)n2)cc(OC)c1OC` [Compound I-94], the figures for the Ki in experiment [1] and in experiment [4] were below 0.1 µM and 0.1 to 1 µM, respectively.

Regarding `COc1cc(-c2ccnc(Nc3nnc(C)s3)n2)cc(OC)c1OC` [Compound I-83], the inhibition constant (Ki) in experiment [1] and in experiment [2] was above 1 µM in each case.

For the molecule `COc1cc(-c2ccnc(Nc3nccs3)n2)cc(OC)c1OC` [Compound I-85], the inhibition constant Ki in experiment [1] and in experiment [4] was 0.1 to 1 µM throughout.

Usually Ki stands for the dissociation constant of the complex between target and ligand, obtained from inhibition or displacement.
